Results: ChEMBL document CHEMBL1150514, “Synthesis and HIV-1 reverse transcriptase inhibition properties of two new methylenephosphonate analogues of 3-azido-3-deoxythymidine-5-triphosphate” (Bioorg Med Chem Lett, 1995)

Target: Human immunodeficiency virus type 1 reverse transcriptase (Human immunodeficiency virus 1, UniProt Q72547)
Test: Inhibitory activity against HIV-1 reverse transcriptase

Compound	IC50 [µM]
Cc1cn([C@H]2C[C@H](N=[N+]=[N-])[C@@H](CO[P@](=O)(O)O[P@](=O)(O)OP(=O)(O)O)O2)c(=O)[nH]c1=O [ZIDOVUDINE TRIPHOSPHATE]	0.043
Cc1cn(C2CC(N=[N+]=[N-])C(COP(=O)(O)CP(=O)(O)CP(=O)(O)O)O2)c(=O)[nH]c1=O (stereo not drawn)	48
Cc1cn(C2CC(N=[N+]=[N-])C(COP(=O)(O)CCCP(=O)(O)O)O2)c(=O)[nH]c1=O (stereo not drawn)	39
